Assay [1] relates to subretinal choroidal neovascularization (CNV). In words: Fluorescein angiography of Matrigel-induced subretinal CNV in aged mice. Type of assay: in vivo, C57BL/6J mice. The following applies: 2 or 10 mg/kg/d by gavage for 5 months. The text has this: The healthy and male C57BL/6J mice at 18-24 months of age were maintained under the barrier conditions in a temperature-controlled environment and fed a commercial mouse chow.
The healthy and male C57BL/6J mice at 14-18 months of age were maintained under the barrier conditions in a temperature-controlled environment and fed a commercial mouse chow.
Animal mode of subretinal choroidal neovascularization (CNV): All mice were subretinally injected with Matrigel in both eyes under general anesthesia. The liquid Matrigel (75% v/v) was prepared using phosphate-buffered saline (PBS) at 4° C. After exposing the sclera, an incision was made between the limbus and the equator using a sharp No. 33 size needle. The Matrigel suspension (0.5 μl per eye) administered via a Hamilton microsyringe with a No. 33 blunt tip needle was slowly injected into the subretinal space along the previous needle tract. Following injection, the Matrigel polymerized to form a solid gel. Fluorescence angiograms were performed over a period of 3 weeks to identify whether mice have CNV.
Fluorescein angiography: After subretinal injection, fluorescein angiograms were obtained on days 3, 7, 10, 14, and 21. Briefly, every mouse group (n=5) were anesthetized with ketamine and xylazine, and the pupils were dilated with 0.5% tropicamide eye drops. […]

Assay [2] deals with Reactive oxygen species (ROS). Briefly: ROS in retina tissue by 2',7'-dichlorofluorescein diacetate fluorescence. The following applies: aged mice, 2 or 10 mg/kg/d by gavage for 5 months. Type of assay: in vivo, C57BL/6J mice. On the procedure: (§1) They were randomly divided into three groups: (1) non-supplement group (Con, n=6); (2) L-Ergothioneine supplement group with low dosage (L-Ergothioneine, 2 mg/kg/d, n=6); (3) L-Ergothioneine supplement group with high dosage (L-Ergothioneine, 10 mg/kg/d, n=6). Some mice were administered L-Ergothioneine for once daily by gavage in normal saline solution for 5 months.
(§2) Mice were euthanized by CO2 inhalation followed by cervical dislocation at the end of study and their eyes were immediately removed. The eyes of some mice (n=3) fixed in 2% paraformaldehyde for 2 h and the retina samples of some mice (n=3) were isolated from eyes radically. All tissues were frozen in optimal cutting temperature embedding compound.
Partial retina tissues were obtained and rapidly broken up in ice-cold normal saline. A tissue homogenate (10%, w/v) was then prepared.
Antioxidant capacity of the retina was measured using an assay based on the ability of the sample to inhibit the oxidation of 2,2′-azino-di-[3-ethylbenzthiazoline sulfonate]+(ABTS) by metmyoglobin. The amount of ABTS+ produced was measured in terms of the decrease in absorbance caused by the antioxidants in the sample. Reactive oxygen species (ROS) were quantified by fluorescence spectroscopy using 2′,7′-dichlorofluorescein diacetate.

For assay [3], the system named is Nrf2. Briefly: Nrf2 real-time PCR in retina tissues. The class given is in vivo, C57BL/6J mice. The following applies: aged mice, 2 or 10 mg/kg/d by gavage for 5 months. On the procedure:
as §1, §2
Total RNA was isolated from retina tissues using Trizol reagent. Real-time PCR was measured and performed with the following primers: Nrf2 forward 5′-[…]-3′. RNA samples were reverse-transcribed to cDNA and subjected to quantitative PCR, performed with a Light Cycler 96 Real-Time PCR System using the AceQ qPCR SYBR Green Master Mix. Nrf2 measurements can be identify the capacity of L-Ergothioneine-mediated Nrf2.

Assay [4] deals with VEGF. Briefly: VEGF ELISA in retina tissue homogenate. The class given is in vivo, C57BL/6J mice. Conditions: aged mice, 2 or 10 mg/kg/d by gavage for 5 months.
Experimental: They were randomly divided into three groups: (1) non-supplement group (Con, n=6); (2) L-Ergothioneine supplement group with low dosage (L-Ergothioneine, 2 mg/kg/d, n=6); (3) L-Ergothioneine supplement group with high dosage (L-Ergothioneine, 10 mg/kg/d, n=6). Some mice were administered L-Ergothioneine for once daily by gavage in normal saline solution for 5 months. […] Partial retina tissues were obtained and rapidly broken up in ice-cold normal saline. A tissue homogenate (10%, w/v) was then prepared. Retina tissues homogenate was centrifuged (2000 rpm, 10 min, 4° C.) and the supernatants were collected and applied to a pre-coated human VEGF microplate. VEGF concentrations was measured in experimental groups of mice using enzyme-linked immunosorbent assay (ELISA) kits to evaluate the levels of proinflammatory cytokines in the retina. This test can assess that the ability of L-Ergothioneine to prevent age-related visual degeneration-induced increases in VEGF level.
Assay [5] has as its system oxidation-induced EMT in RPE. In words: Immunoreactivity of mesenchymal markers (Slug, Snail, vimentin, OB-cadherin) in RPE sections. Type of assay: in vivo, C57BL/6J mice. The following applies: aged mice, 2 or 10 mg/kg/d by gavage for 5 months. On the procedure:
as §1, §2
From paraffin embedded blocks, 3 μm-thick parasagittal serial sections were cut with a microtome for future testing the immunoreactivity of mesenchymal markers. The immunoreactivity of mesenchymal markers (Slug, Snail, vimentin, OB-cadherin) was examined with a confocal microscope. And semi-quantitative comparative densitometric analysis performed by ImageJ of the immunoreactivity of the mesenchymal markers in 1-μm parasagittal sections of RPE. Alexa Fluor secondary antibodies were used to detect specific mesenchymal markers. DAPI (4,6-diamidino-2-fenilindole, dihydrochloride) was used to stain the nuclei of RPE cells.

The test system of assay [6] is subretinal choroidal neovascularization. Briefly: Zebrafish wet macular degeneration model (cobalt chloride), choroidal vessel area. The class given is in vivo. The following applies: 500, 1000, 2000 μg/mL in water, 3 days, 28° C., FIG. 1. On the procedure: Experimental animals: Zebrafish were raised in fish water at 28° C. (water quality: 200 mg of instant sea salt was added to each 1 L of reverse osmosis water, the conductivity was 450-550 μS/cm; pH was 6.5-8.5; hardness was […] CaCO3). Transgenic vascular green fluorescent zebrafish (Fli-1 strain) were reproduced by natural paired mating. Age is 1 day after fertilization (1 dpf).
Sample preparation: L-Ergothioneine, white powder, was prepared into 2.00 mg/mL mother solution with standard dilution water. Positive control: Aescin and digitalis double glucoside eye drops was directly sucked the original solution.
Experimental design: The transgenic vascular green fluorescent strain zebrafish aged 1 day after fertilization (1 dpf) were randomly selected and placed in a 6-well plate, with 30 fish in each well (each experimental group). L-Ergothioneine (concentrations of 500, 1000, and 2000 μg/mL) were administered in water solution, respectively, and the positive control escin and digitalis glucoside eye drops (containing 0.3 μg/mL of digitonin and 2.0 μg/mL of escin) were administered, respectively. […] After 3 days of treatment at 28° C., 10 zebrafish were randomly selected from each experimental group and placed under a fluorescence microscope to take pictures, and the NIS-Elements D 3.20 advanced image processing software was used to analyze and collect the data. […]

Assay [7] concerns zebrafish retinal structure. In words: Zebrafish eye histopathology (H&E) after cobalt chloride model. The class given is in vivo. The following applies: FIG. 2. From the text:
Experimental animals, sample preparation, sample processing and administration are same as test 4. After that, these zebrafish after 3 days of administration were fixed with 4% histiocyte fixative, then stained with H&E and they were subject to test ocular histopathological analysis.

In assay [8] the test system is ROS. In words: Zebrafish ROS fluorescence value (CM-H2DCFDA). Type of assay: in vivo. Conditions: wild-type AB strain, 500, 1000, 2000 μg/mL, 2 days plus 20 hours staining, FIG. 3. On the procedure: After 2 days of supplementation at 28° C., zebrafish were stained with CM-H2DCFDA, and the original concentration in each well remained unchanged. 10 zebrafish were randomly selected from each experimental group and transferred to black 96 microtiter plates.

Assay [9] concerns VEGFR1 genes. In words: Zebrafish q-PCR of VEGFR1 genes. Type of assay: in vivo. The following applies: 3 days at 28° C., β-actin internal reference, FIG. 4. On the procedure: Except that the positive control is bevacizumab (a potent antiangiogenic substance), experimental animals, sample preparation of L-Ergothioneine and sample processing are the same as in test 4.
(§3) After 3 days of supplementation at 28° C., the total RNA of each group of zebrafish was extracted using an RNA rapid extraction kit, and the concentration and purity of total RNA were determined by UV-Vis spectrophotometer. Take 2.00 μg of total RNA from zebrafish samples and follow the instructions of the first-strand cDNA synthesis kit to synthesize 20.0 μL of cDNA, and detect the expression of ß-actin and VEGFR1 genes by q-PCR. Using 6-actin as an internal reference for gene expression, the relative RNA expression levels of VEGFR1 genes were calculated.

For assay [10], the system named is hif-1α genes. Briefly: Zebrafish q-PCR of hif-1α genes. Type of assay: in vivo. The following applies: 3 days at 28° C., FIG. 5. On the procedure: as §3
(§4) The other test condition and methods are the same as test 7. Except that just detect 6-actin, hif-1α and vegfaa genes by q-PCR.

The test system of assay [11] is vegfaa genes. Briefly: Zebrafish q-PCR of vegfaa genes. Conditions: 3 days at 28° C., FIG. 6. The class given is in vivo. On the procedure: as §3, §4

Turning to `C[N+](C)(C)[C@@H](Cc1c[nH]c(=S)[nH]1)C(=O)[O-]` [L-Ergothioneine], in assay [1], the CNV level result is “attenuated obviously”. Moreover, the “scavenging of chronic ROS in retina” value in assay [2] is given as “about 45%”. For the same compound, the “activation of Nrf2-mediated genes in retina” value in assay [3] is listed as “activated”. Besides, the “decrease of VEGF level in retina” value in [4] is reported as “about 50%”. For the same compound, in assay [5], the “mesenchymal marker immunoreactivity in RPE” value is reported as “decreased” and the “oxidation-induced EMT / epithelial fibrosis in RPE” value was “inhibited”. Also, the “choroidal vessel area of the zebrafish eye” value in assay [6] is reported as “could mitigate subretinal choroidal neovascularization”. In addition, the “damage of zebrafish retinal structure (histopathological section)” value in assay [7] (500, 1000, 2000 μg/mL, 3 days, H&E) is “can improve the damage of zebrafish retinal structure”. The “effect on retinal structure compared with positive control eye drops” value in assay [7] (versus aescin and digitalis double glucoside eye drops) was “better than that of aescin and digitalis double glucoside eye drops”. Besides, the “ROS fluorescence value of zebrafish” value in [8] is “good effect on preventing retinal degeneration”. The “relative expression level of VEGFR1 genes” value in assay [9] is given as “decreasing the expression of VEGFR1 genes”. Also, the “relative expression level of hif-1α genes” value in [10] is “lowering the expression level”. For the same compound, the “relative expression level of vegfaa genes” value in assay [11] is “lowering the expression level”.
